Laboratory results: ChEMBL document CHEMBL1155901, “Sialyl alpha(2-->3) lactose clusters using carbosilane dendrimer core scaffolds as influenza hemagglutinin blockers” (Bioorg Med Chem Lett, 2008)
Calls of active or inactive are those of the source. The calls are words filed in the database; no cut-off is given here.

How the values were obtained:
Assay type in all cases: functional, organism-based
Influenza A virus H3N2 [1] = experiment: Inhibition of hemagglutinination in human influenza virus A/Aich/2/68 (H3N2) infected in bovine erythrocytes; conditions: Influenza A virus (A/Aichi/2/1968(H3N2))
Influenza A virus = experiment: Inhibition of hemagglutinination in human influenza virus A/PR/8/34 (H1N1) infected in bovine erythrocytes; conditions: A/Puerto Rico/8/1934(H1N1)
Influenza A virus H3N2 [2] = experiment: Inhibition of hemagglutinination in human influenza virus A/Memphis/1/71 (H3N2) infected in bovine erythrocytes; conditions: Influenza A virus (A/Memphis/1/1971(H3N2))

| SMILES | Activity (Influenza A virus H3N2 [1]) | Activity (Influenza A virus) | Activity (Influenza A virus H3N2 [2]) |
| --- | --- | --- | --- |
| CC(=O)N[C@H]1[C@H]([C@H](O)[C@H](O)CO)O[C@@](O[C@H]2[C@@H](O)[C@@H](CO)O[C@H](O[C@H]3[C@H](O)[C@@H](O)[C@H](OCCCCCSCCC[Si](CCCSCCCCCO[C@@H]4O[C@H](CO)[C@@H](O[C@H]5O[C@H](CO)[C@H](O)[C@H](O[C@]6(C(=O)O)C[C@H](O)[C@@H](NC(C)=O)[C@H]([C@H](O)[C@H](O)CO)O6)[C@H]5O)[C@H](O)[C@H]4O)(CCCSCCCCCO[C@@H]4O[C@H](CO)[C@@H](O[C@H]5O[C@H](CO)[C@H](O)[C@H](O[C@]6(C(=O)O)C[C@H](O)[C@@H](NC(C)=O)[C@H]([C@H](O)[C@H](O)CO)O6)[C@H]5O)[C@H](O)[C@H]4O)c4ccccc4)O[C@@H]3CO)[C@@H]2O)(C(=O)O)C[C@@H]1O | Active | Active |  |
| CC(=O)N[C@H]1[C@H]([C@H](O)[C@H](O)CO)O[C@@](O[C@H]2[C@@H](O)[C@@H](CO)O[C@H](O[C@H]3[C@H](O)[C@@H](O)[C@H](OCCCCCSCCCCCC(=O)NCCC[Si](CCCNC(=O)CCCCCSCCCCCO[C@@H]4O[C@H](CO)[C@@H](O[C@H]5O[C@H](CO)[C@H](O)[C@H](O[C@]6(C(=O)O)C[C@H](O)[C@@H](NC(C)=O)[C@H]([C@H](O)[C@H](O)CO)O6)[C@H]5O)[C@H](O)[C@H]4O)(CCCNC(=O)CCCCCSCCCCCO[C@@H]4O[C@H](CO)[C@@H](O[C@H]5O[C@H](CO)[C@H](O)[C@H](O[C@]6(C(=O)O)C[C@H](O)[C@@H](NC(C)=O)[C@H]([C@H](O)[C@H](O)CO)O6)[C@H]5O)[C@H](O)[C@H]4O)CCC[Si](C)(C)CCC[Si](CCCNC(=O)CCCCCSCCCCCO[C@@H]4O[C@H](CO)[C@@H](O[C@H]5O[C@H](CO)[C@H](O)[C@H](O[C@]6(C(=O)O)C[C@H](O)[C@@H](NC(C)=O)[C@H]([C@H](O)[C@H](O)CO)O6)[C@H]5O)[C@H](O)[C@H]4O)(CCCNC(=O)CCCCCSCCCCCO[C@@H]4O[C@H](CO)[C@@H](O[C@H]5O[C@H](CO)[C@H](O)[C@H](O[C@]6(C(=O)O)C[C@H](O)[C@@H](NC(C)=O)[C@H]([C@H](O)[C@H](O)CO)O6)[C@H]5O)[C@H](O)[C@H]4O)CCCNC(=O)CCCCCSCCCCCO[C@@H]4O[C@H](CO)[C@@H](O[C@H]5O[C@H](CO)[C@H](O)[C@H](O[C@]6(C(=O)O)C[C@H](O)[C@@H](NC(C)=O)[C@H]([C@H](O)[C@H](O)CO)O6)[C@H]5O)[C@H](O)[C@H]4O)O[C@@H]3CO)[C@@H]2O)(C(=O)O)C[C@@H]1O | Active | Active | Active |
| CC(=O)N[C@H]1[C@H]([C@H](O)[C@H](O)CO)O[C@@](O[C@H]2[C@@H](O)[C@@H](CO)O[C@H](O[C@H]3[C@H](O)[C@@H](O)[C@H](OCCCCCSCCCCCC(=O)NCCC[Si](CCCNC(=O)CCCCCSCCCCCO[C@@H]4O[C@H](CO)[C@@H](O[C@H]5O[C@H](CO)[C@H](O)[C@H](O[C@]6(C(=O)O)C[C@H](O)[C@@H](NC(C)=O)[C@H]([C@H](O)[C@H](O)CO)O6)[C@H]5O)[C@H](O)[C@H]4O)(CCCNC(=O)CCCCCSCCCCCO[C@@H]4O[C@H](CO)[C@@H](O[C@H]5O[C@H](CO)[C@H](O)[C@H](O[C@]6(C(=O)O)C[C@H](O)[C@@H](NC(C)=O)[C@H]([C@H](O)[C@H](O)CO)O6)[C@H]5O)[C@H](O)[C@H]4O)CCCNC(=O)CCCCCSCCCCCO[C@@H]4O[C@H](CO)[C@@H](O[C@H]5O[C@H](CO)[C@H](O)[C@H](O[C@]6(C(=O)O)C[C@H](O)[C@@H](NC(C)=O)[C@H]([C@H](O)[C@H](O)CO)O6)[C@H]5O)[C@H](O)[C@H]4O)O[C@@H]3CO)[C@@H]2O)(C(=O)O)C[C@@H]1O | Active | Active |  |
| C=CCCCO[C@@H]1O[C@H](CO)[C@@H](O[C@H]2O[C@H](CO)[C@H](O)[C@H](O[C@]3(C(=O)O)C[C@H](O)[C@@H](NC(C)=O)[C@H]([C@H](O)[C@H](O)CO)O3)[C@H]2O)[C@H](O)[C@H]1O | Active | Active |  |
| CC(=O)N[C@H]1[C@H]([C@H](O)[C@H](O)CO)O[C@@](O[C@H]2[C@@H](O)[C@@H](CO)O[C@H](O[C@H]3[C@H](O)[C@@H](O)[C@H](OCCCCCSCCC[Si](CCCSCCCCCO[C@@H]4O[C@H](CO)[C@@H](O[C@H]5O[C@H](CO)[C@H](O)[C@H](O[C@]6(C(=O)O)C[C@H](O)[C@@H](NC(C)=O)[C@H]([C@H](O)[C@H](O)CO)O6)[C@H]5O)[C@H](O)[C@H]4O)(CCCSCCCCCO[C@@H]4O[C@H](CO)[C@@H](O[C@H]5O[C@H](CO)[C@H](O)[C@H](O[C@]6(C(=O)O)C[C@H](O)[C@@H](NC(C)=O)[C@H]([C@H](O)[C@H](O)CO)O6)[C@H]5O)[C@H](O)[C@H]4O)CCC[Si](C)(C)CCC[Si](CCCSCCCCCO[C@@H]4O[C@H](CO)[C@@H](O[C@H]5O[C@H](CO)[C@H](O)[C@H](O[C@]6(C(=O)O)C[C@H](O)[C@@H](NC(C)=O)[C@H]([C@H](O)[C@H](O)CO)O6)[C@H]5O)[C@H](O)[C@H]4O)(CCCSCCCCCO[C@@H]4O[C@H](CO)[C@@H](O[C@H]5O[C@H](CO)[C@H](O)[C@H](O[C@]6(C(=O)O)C[C@H](O)[C@@H](NC(C)=O)[C@H]([C@H](O)[C@H](O)CO)O6)[C@H]5O)[C@H](O)[C@H]4O)CCCSCCCCCO[C@@H]4O[C@H](CO)[C@@H](O[C@H]5O[C@H](CO)[C@H](O)[C@H](O[C@]6(C(=O)O)C[C@H](O)[C@@H](NC(C)=O)[C@H]([C@H](O)[C@H](O)CO)O6)[C@H]5O)[C@H](O)[C@H]4O)O[C@@H]3CO)[C@@H]2O)(C(=O)O)C[C@@H]1O | Active | Active |  |
| CC(=O)N[C@H]1[C@H]([C@H](O)[C@H](O)CO)O[C@@](O[C@H]2[C@@H](O)[C@@H](CO)O[C@H](O[C@H]3[C@H](O)[C@@H](O)[C@H](OCCCCCSCCCCCC(=O)NCCC[Si](CCCNC(=O)CCCCCSCCCCCO[C@@H]4O[C@H](CO)[C@@H](O[C@H]5O[C@H](CO)[C@H](O)[C@H](O[C@]6(C(=O)O)C[C@H](O)[C@@H](NC(C)=O)[C@H]([C@H](O)[C@H](O)CO)O6)[C@H]5O)[C@H](O)[C@H]4O)(CCCNC(=O)CCCCCSCCCCCO[C@@H]4O[C@H](CO)[C@@H](O[C@H]5O[C@H](CO)[C@H](O)[C@H](O[C@]6(C(=O)O)C[C@H](O)[C@@H](NC(C)=O)[C@H]([C@H](O)[C@H](O)CO)O6)[C@H]5O)[C@H](O)[C@H]4O)c4ccccc4)O[C@@H]3CO)[C@@H]2O)(C(=O)O)C[C@@H]1O | Active | Active |  |
| CC(=O)N[C@H]1[C@H]([C@H](O)[C@H](O)CO)O[C@@](O[C@H]2[C@@H](O)[C@@H](CO)O[C@H](O[C@H]3[C@H](O)[C@@H](O)[C@H](OCCCCCSCCC[Si](CCCSCCCCCO[C@@H]4O[C@H](CO)[C@@H](O[C@H]5O[C@H](CO)[C@H](O)[C@H](O[C@]6(C(=O)O)C[C@H](O)[C@@H](NC(C)=O)[C@H]([C@H](O)[C@H](O)CO)O6)[C@H]5O)[C@H](O)[C@H]4O)(CCCSCCCCCO[C@@H]4O[C@H](CO)[C@@H](O[C@H]5O[C@H](CO)[C@H](O)[C@H](O[C@]6(C(=O)O)C[C@H](O)[C@@H](NC(C)=O)[C@H]([C@H](O)[C@H](O)CO)O6)[C@H]5O)[C@H](O)[C@H]4O)CCCSCCCCCO[C@@H]4O[C@H](CO)[C@@H](O[C@H]5O[C@H](CO)[C@H](O)[C@H](O[C@]6(C(=O)O)C[C@H](O)[C@@H](NC(C)=O)[C@H]([C@H](O)[C@H](O)CO)O6)[C@H]5O)[C@H](O)[C@H]4O)O[C@@H]3CO)[C@@H]2O)(C(=O)O)C[C@@H]1O | Active | Active |  |
